IC50 data for 38 compounds are collected here from patent US20230000869A1, “NOVEL ALK2 INHIBITORS AND METHODS FOR INHIBITING BMP SIGNALING” (The Brigham and Women's Hospital, Inc., priority 2017, published 2023).

Each structure is given as a SMILES string. Counter-ions that a name gives are not always drawn.

One assay has as its system TGFβ. As to the kind of experiment: Luciferase reporter gene assay for TGFβ activity (HEK293T SBE-Luc SMAD2/3 reporter, TGFβ agonist). It counts as cell-based. The conditions noted are these: TGFβ 5 ng/mL. Here is the method:
(§1) All cell lines were cultured in DMEM, supplemented with […] and 1% Pen/Strep. All media reagents were obtained from Gibco. BMP6, BMP9, and TGFβ were obtained from R&D Systems. C2C12-BRE and HEK293T-SBE were kept in selection with 400 ug/mL G418 from Invivogen.
(§2) In this reporter gene cell based ALK2 and TGFβ assay, the C2C12 cell line was employed for the measurement of ALK2 activity, using a BRE-Luc SMAD1/5/8 reporter and BMP6 as the agonist. The HEK293T cell line was employed to measure TGFβ activity, using a SBE-Luc SMAD2/3 reporter and TGFβ as the agonist. Luciferase reporter assays were read using Promega Steady-Glo Luciferase Assay System.
(§3) Cells were plated in 96 well white clear bottom assay plates at 10 k cells/well for C2C12-BRE, 15 k cells/well for HEK293-SBE in DMEM containing 2% FBS 1% P/S. Cells were given a minimum of 4 hours in incubator at 37° C./5% CO2 to adhere prior to further treatment. Compounds were diluted in DMSO to a 10-point dilution curve and added to the plate to reach the following final concentrations: 10000, 3000, 1000, 300, 100, and 30 nM in the HEK293-SBE assay and 1000, 300, 100, 30, 10, 3, 1, 0.3 nM in the C2C12-BRE assay. Negative and positive control wells received 2 μL DMSO as vehicle treatment. Plates were returned to incubator for 45 minutes and then BMP6 and TGFB were added to a final concentration of 50 ng/mL and 5 ng/mL, respectively. Plates were returned to the incubator and left overnight. After a minimum of 18 hours post BMP6/TGFβ addition, the plates were read using Promega Steady-Glo Luciferase Assay System. A 1:1 mixture of prepared steady-glo and phenol free DMEM was prepared, and 50 μL/well was added to the assay plates whose media had been flicked off. Plates were given 10 minutes post steady-glo addition before luminescence was read on a Spectramax M5e microplate reader. Negative control wells were averaged and subtracted from all other wells on the plate. Inhibition was calculated as the percent of signal loss compared to the averaged positive control wells.
A general note: Reporter assays use an easily measured gene product as a stand-in for the process of interest.

The target in the next assay is T1, ALK2 (Mus musculus, UniProt P37172).
T1 construct: endogenous in cells; host or cells: C2C12-BRE (BRE-Luc reporter line, G418 selection)
T1 sequence (P37172 21-509): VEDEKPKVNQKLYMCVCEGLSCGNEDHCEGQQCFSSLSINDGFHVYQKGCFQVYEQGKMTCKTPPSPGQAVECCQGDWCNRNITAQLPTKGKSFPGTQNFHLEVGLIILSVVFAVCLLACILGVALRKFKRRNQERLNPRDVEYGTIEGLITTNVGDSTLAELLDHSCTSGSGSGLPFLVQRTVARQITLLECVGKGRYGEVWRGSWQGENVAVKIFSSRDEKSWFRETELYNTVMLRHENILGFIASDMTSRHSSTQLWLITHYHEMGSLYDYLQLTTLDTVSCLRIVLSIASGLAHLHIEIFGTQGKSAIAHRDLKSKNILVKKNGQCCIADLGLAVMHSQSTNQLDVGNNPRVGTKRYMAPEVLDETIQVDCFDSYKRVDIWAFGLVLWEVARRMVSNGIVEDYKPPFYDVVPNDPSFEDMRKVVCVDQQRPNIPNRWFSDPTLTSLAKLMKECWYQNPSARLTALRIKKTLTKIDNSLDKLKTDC
As to the kind of experiment: Luciferase reporter gene assay for ALK2 activity (C2C12 BRE-Luc SMAD1/5/8 reporter, BMP6 agonist). The conditions noted are these: BMP6 50 ng/mL. The class given is cell-based. Here is the method: as §1, §2, §3

The term IC50 denotes the midpoint of a concentration-inhibition curve. With `COc1cc2c(-c3cnn4cc(N5CCN(c6ccnc(C)n6)CC5)cnc34)ccnc2cc1F` [Compound 203], the IC50 was > 3000 nM with TGFβ (Homo sapiens, HEK-293T) and 26 nM at ALK2.
On the same counts, the results for `COc1cc2c(-c3cnn4cc(N5CCN(c6nnc(C)s6)CC5)cnc34)ccnc2cc1F` [Compound 204] are > 3000 nM and 11 nM.
On the same counts, the results for `CN1CCN(C2CCN(c3cnc4c(-c5ccnc6cccnc56)cnn4c3)CC2)CC1` [Compound 205] are > 3000 nM and 593 nM.
As to `COc1cc2c(-c3cnn4cc(N5CCC(N6CCN(C)CC(F)(F)C6)CC5)cnc34)ccnc2cc1F` [Compound 206], the IC50 in the assay on TGFβ (Homo sapiens, HEK-293T) came to 817 nM; at ALK2, 356 nM.
As to `Cc1cc(-c2cnn3cc(N4CCC(N5CCN(C)CC(F)(F)C5)CC4)cnc23)c2ccccc2n1` [Compound 207], the IC50 with TGFβ (Homo sapiens, HEK-293T) was 215 nM; on ALK2, 331 nM.
On the same counts, the results for `COc1ccc2nccc(-c3cnn4cc(N5CCC(N6CCCN(C)CC6)CC5)cnc34)c2c1` [Compound 208] are 685 nM and 104 nM.
On the same counts, the results for `COc1cc2c(-c3cnn4cc(N5CC(c6ccncc6)C5)cnc34)ccnc2cc1F` [Compound 209] are 62 nM and 15 nM.
On the same counts, the results for `Cc1cc(-c2cnn3cc(N4CC(c5ccncc5)C4)cnc23)c2ccccc2n1` [Compound 210] are 91 nM and 17 nM.
Regarding `COc1cc2c(-c3cnn4cc(N5CCC(C(C)(C)N)CC5)cnc34)ccnc2cc1F` [Compound 211], the IC50 in the assay on TGFβ (Homo sapiens, HEK-293T) is 416 nM; at ALK2, 51 nM.
As for `CS(=O)(=O)c1cccc(-c2cnn3cc(N4CCNCC4)cnc23)c1` [Compound 212], the IC50 in the assay with TGFβ (Homo sapiens, HEK-293T) was determined as 760 nM; at ALK2, 38 nM.
On the same counts, the results for `CS(=O)(=O)c1cccc(-c2cnn3cc(N4CCN(C5CCNCC5)CC4)cnc23)c1` [Compound 213, 3-(3-(methylsulfonyl)phenyl)-6-(4-(piperidin-4-yl)piperazin-1-yl)pyrazolo[1,5-a]pyrimidine trihydrochloride] are < 1 nM and < 1 nM.
`COc1cc2c(-c3c(N)nn4cc(N5CCC(N6CCN(C)CC6)CC5)cnc34)ccnc2cc1F` [Compound 214, 3-(7-fluoro-6-methoxy-4-quinolyl)-6-[4-(4-methylpiperazin-1-yl)-1-piperidyl]pyrazolo[1,5-a]pyrimidin-2-amine]: the IC50 with TGFβ (Homo sapiens, HEK-293T) is > 1000 nM; on ALK2, > 1000 nM.
In the case of `COc1cc2c(-c3cnn4cc(N5CCC(N6C[C@@H]7C[C@H]6CN7C)CC5)cnc34)ccnc2cc1F` [Compound 215], the IC50 is 142 nM in the assay on TGFβ (Homo sapiens, HEK-293T) and 34 nM at ALK2.
As for `COc1cc2c(-c3cnn4cc(N5CCC6(CC5)CN(C)C6)cnc34)ccnc2cc1F` [Compound 216], the figures for the IC50 in the assay on TGFβ and at ALK2 were 44 nM and 24 nM, respectively.
As to `COc1cc2c(-c3cnn4cc(N5CCC6(CCN(C)CC6)CC5)cnc34)ccnc2cc1F` [Compound 217], the IC50 in the assay with TGFβ (Homo sapiens, HEK-293T) is 116 nM; on ALK2 it was 33 nM.
As to `COc1cc2c(-c3cnn4cc(N5C[C@H]6CN(C)C[C@H]6C5)cnc34)ccnc2cc1F` [Compound 218], the IC50 was 141 nM in the assay on TGFβ (Homo sapiens, HEK-293T) and 26 nM on ALK2.
On the same counts, the results for `CN1CCN(C2CCN(c3cnc4c(-c5ccnc(N6CCOCC6)c5)cnn4c3)CC2)CC1` [Compound 219] are > 3000 nM and 381 nM.
On the same counts, the results for `COc1cc2c(-c3cnn4cc(N5CCC(N6CCN(C)CC6)CC5)cnc34)cc(=O)[nH]c2cc1F` [Compound 220] are > 1000 nM and > 1000 nM.
With `COc1ccc2nccc(-c3cnn4cc(N5CC(N6CCN(C)CC6)C5)cnc34)c2c1` [Compound 221], the IC50 in the assay on TGFβ (Homo sapiens, HEK-293T) was found to be 277 nM; on ALK2 it was 6 nM.
`Cc1cc(-c2cnn3cc(N4CC(N5CCN(C)CC5)C4)cnc23)c2ccccc2n1` [Compound 222]: the IC50 was found to be 70 nM in the assay on TGFβ (Homo sapiens, HEK-293T) and 14 nM at ALK2.
On the same counts, the results for `Cc1cc(-c2cnn3cc(N4CCC(N5CCN(C)CC5)CC4)cc(OC4CCOCC4)c23)c2ccccc2n1` [Compound 223] are > 3000 nM and 272 nM.
On the same counts, the results for `COc1cc2c(-c3cnn4cc(N5CCC(N6CCN(C)CC6)CC5)cc(OC5CCOCC5)c34)ccnc2cc1F` [Compound 224] are > 3000 nM and > 1000 nM.
On the same counts, the results for `CN1CCN(C2CCN(c3cc(OC4CCOCC4)c4c(-c5cn[nH]c5)cnn4c3)CC2)CC1` [Compound 225] are > 3000 nM and > 1000 nM.
`Cc1cc2nccc(-c3cnn4cc(N5CCC(N6CCN(C)CC6)CC5)cnc34)c2s1` [Compound 226]: the IC50 in the assay on TGFβ (Homo sapiens, HEK-293T) was > 1000 nM; at ALK2, 18 nM.
On the same counts, the results for `Cc1cc2nccc(-c3cnn4cc(N5CCC(N6CCN(C)CC6)CC5)cnc34)c2[nH]1` [Compound 227] are 826 nM and 903 nM.
On the same counts, the results for `CN1CCN(C2CCN(c3cnc4c(-c5ccnc6cc[nH]c56)cnn4c3)CC2)CC1` [Compound 228] are 605 nM and 476 nM.
On the same counts, the results for `CN1CCN(C2CCN(c3cnc4c(-c5cc(N)nc6ccccc56)cnn4c3)CC2)CC1` [Compound 229] are 9 nM and 52 nM.
Turning to `COc1cc2c(-c3cnn4cc(N5CCC(N6CCN(C)CC6)CC5)ccc34)ccnc2cc1F` [Compound 230], the IC50 in the assay on TGFβ (Homo sapiens, HEK-293T) came to 505 nM; on ALK2, 46 nM.
Take `Cc1cc2nccc(-c3cnn4cc(N5CCC(N6CCN(C)CC6)CC5)cnc34)c2cc1C` [Compound 233]: the IC50 with TGFβ (Homo sapiens, HEK-293T) came out at 589 nM; on ALK2, 70 nM.
On the same counts, the results for `CN1CCN(C2CCN(c3cnc4c(-c5ccnc6ccc(C#N)cc56)cnn4c3)CC2)CC1` [Compound 234] are > 1000 nM and > 1000 nM.
`CN1CCN(C2CCN(c3cnc4c(-c5ccnc6ccc(C(F)(F)F)cc56)cnn4c3)CC2)CC1` [Compound 235]: the IC50 in the assay with TGFβ (Homo sapiens, HEK-293T) was > 1000 nM; on ALK2, 25 nM.
Regarding `CN1CCN(C2CCN(c3cnc4c(-c5cc(C(F)(F)F)nc6ccccc56)cnn4c3)CC2)CC1` [Compound 236], the IC50 in the assay on TGFβ (Homo sapiens, HEK-293T) stood at 267 nM; at ALK2, 975 nM.
Consider `CN1CCN(C2CCN(c3cnc4c(-c5cc(C#N)nc6ccccc56)cnn4c3)CC2)CC1` [Compound 237], for which the IC50 with TGFβ (Homo sapiens, HEK-293T) was found to be 240 nM; on ALK2, 6 nM.
For `CN1CCN(C2CCN(c3cnc4c(-c5cc(C(F)F)nc6ccccc56)cnn4c3)CC2)CC1` [Compound 238], the IC50 with TGFβ (Homo sapiens, HEK-293T) was found to be 306 nM; at ALK2 it was 175 nM.
With `COc1cc2c(-c3cnn4cc(N5CCC(N6CCN(C)CC6)CC5)cnc34)ccnc2cc1O` [Compound 239], the IC50 is > 1000 nM in the assay with TGFβ (Homo sapiens, HEK-293T) and 32 nM on ALK2.
For the compound `CN1CCN(C2CCN(c3cnc4c(-c5ccnc6cc(F)c(Cl)cc56)cnn4c3)CC2)CC1` [Compound 240], the IC50 in the assay on TGFβ (Homo sapiens, HEK-293T) is 291 nM; on ALK2, 16 nM.
For `CN1CCN(C2CCN(c3cnc4c(-c5ccnc6ccc(Cl)cc56)cnn4c3)CC2)CC1` [Compound 241], the IC50 in the assay on TGFβ (Homo sapiens, HEK-293T) was > 1000 nM; at ALK2 it was 92 nM.
Turning to `CN1CCN(C2CCN(c3cnc4c(-c5ccnc6cc(F)c(O)cc56)cnn4c3)CC2)CC1` [Compound 242], the IC50 is < 10 nM with TGFβ (Homo sapiens, HEK-293T) and 37 nM at ALK2.
